# “Also recorded” adds a separate entry of the source. Where two headings read alike, the source gives them in different places.
# Tests used:
# [1] = test system: MHC-mismatched heart grafts; details: quinacrine on days −2, −1, +5, +14, +16; for survival of heart allografts: A/J donors to C57BL/6
# Protocol: Heterotopic cardiac transplants were performed using microsurgical techniques. Briefly, donor hearts were harvested and placed in chilled Ringer's solution while the recipient mice were prepared. […] Upon completion of the anastomoses and organ reperfusion, the heart grafts resumed spontaneous contraction. The strength and quality of cardiac graft impulses were monitored each day by palpation of the abdomen. Rejection of cardiac grafts was considered complete by cessation of impulse and was confirmed visually for each graft by laparotomy.
# [2] = test system: contact hypersensitivity (CHS) response; experiment: Hapten sensitization and elicitation of contact hypersensitivity; type: in vivo, BALB/c mice; details: 24 hours after challenge
# Protocol: For sensitization to DNFB, mice were painted on days 0 and +1 with 25 ml of 0.25% 2,4-dinitrofluorobenzene (DNFB) (Sigma Chemical, Co.) on the shaved abdomen and 5 ml on each footpad. On day +5 sensitized and, as a negative control, unsensitized mice were challenged with 10 ml of 0.2% DNFB on both sides of each ear. Ear thickness was measured in a blinded manner at 24 h intervals after challenge using an engineer's micrometer (Mitutoyo, Elk Grove Village, Ill.) and expressed in units of 10^−4 inches. The magnitude of ear swelling responses is presented in FIG. 12 as the mean increase of each group of 4 sensitized or non-sensitized mice (i.e. […]) ±SEM over the thickness measured just prior to hapten challenge on day +5 post-sensitization. […] Control mice received injections with an equal volume of PBS.
smiles,measurement,setting,value
"CCN(CC)CCCC(C)Nc1c2ccc(Cl)cc2nc2ccc(OC)cc12 (centres unmarked) [QC, quinacrine]",survival of heart allografts,[1]; listed as Quinacrine,extended the survival of all grafts
same,survival of heart allografts,[1]; listed as quinacrine,significant prolongation of allograft survival
same,rejection of heart allografts,[1]; groups of 5,absence of rejection in one of the allografts
same,CHS/ear swelling response,[2]; quinacrine 80 mg/kg i.p. on days −2 and −1 (just prior to DNFB sensitization),"inhibits the priming of antigen-specific T cells (FIG. 13) and the magnitude and duration of the allergic response elicited; also recorded: decreased the CHS/ear swelling response to near the level observed following challenge of non-immune, naïve mice"
same,CHS/ear swelling response,[2]; quinacrine on days 0 and +1 (during DNFB sensitization),increased the magnitude and persistence of the antigen-specific T cell response; also recorded: increased the CHS response to the challenge

# Reference: patent publication US20100112012A1, “MODULATION OF IMMUNE RESPONSES” (CLEVELAND CLINIC FOUNDATION, priority 2005, published 2010)
